Key:
ERα = target: T1, ERα (Homo sapiens, UniProt P03372); assay: Estrogen receptor degradation activity (breast cancer cell ERα in cell western assay); format: cell-based; settings: MCF7 cells, 0.3 μM, 4 hours, % of ERα levels decrease relative to fulvestrant
T1 construct: host or cells: MCF7
T1 sequence (P03372 1-595): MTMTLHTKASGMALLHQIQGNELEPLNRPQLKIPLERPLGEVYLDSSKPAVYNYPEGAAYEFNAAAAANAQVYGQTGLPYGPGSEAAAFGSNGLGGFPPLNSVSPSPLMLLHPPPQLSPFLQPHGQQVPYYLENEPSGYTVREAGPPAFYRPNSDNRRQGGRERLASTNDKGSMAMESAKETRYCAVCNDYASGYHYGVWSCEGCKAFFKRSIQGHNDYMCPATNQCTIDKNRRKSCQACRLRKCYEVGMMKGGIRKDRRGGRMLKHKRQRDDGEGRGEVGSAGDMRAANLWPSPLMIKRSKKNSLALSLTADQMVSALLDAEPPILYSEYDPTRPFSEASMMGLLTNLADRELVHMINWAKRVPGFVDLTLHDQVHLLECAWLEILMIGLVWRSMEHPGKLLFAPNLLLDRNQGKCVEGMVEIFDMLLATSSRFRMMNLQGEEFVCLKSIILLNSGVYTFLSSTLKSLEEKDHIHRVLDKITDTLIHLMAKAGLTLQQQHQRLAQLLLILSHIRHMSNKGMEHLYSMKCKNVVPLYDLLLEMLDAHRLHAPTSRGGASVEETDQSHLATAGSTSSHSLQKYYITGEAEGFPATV
Summary of the method: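 MCF7 cells in phenol red-free MEM alpha with 5% charcoal-stripped FBS were exposed for 4 h to 9-point 1:5 dilutions (0.3–0.0000018 μM final). In-cell western: anti-ERα immunofluorescence normalized to Syto-64 DNA stain, scaled between DMSO and 0.1 μM fulvestrant; IC50 as 50% ERα degradation, in nM.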

CYP3A4 = CYP3A4 induction potential for ADME profile evaluation (CYP3A4 mRNA by RT-PCR in primary human hepatocytes); format: in vitro ADME; settings: approximately 48 hours, 0.3-10 μM, relative to 10 μM rifampicin
Description: Such test is based, for example, on the quantification of CYP3A4 mRNA induction performed by RT-PCR analysis. Said % Emax may be calculated as detailed in the illustrative part under the following formula:
[formula] • ECompound: relative fold mRNA expression following treatment with test compound, • EPositive control: relative fold mRNA expression following reference inducer i.e., 10 μM rifampicin, • EVehicle control: relative fold mRNA expression following vehicle treatment i.e., 0.1% DMSO, and • E is the efficiency of the quantitative PCR.
Said test evaluates the potential induction effect of the tested compounds on CYP3A4 gene expression in primary cultures of human hepatocytes from one or two donors with established concentration-dependent response to the reference inducer, rifampicin.
Before seeding, cell viability was estimated using the Trypan blue dye exclusion test. Hepatocytes were seeded on collagen I-coated 96-well plates at a density of 70 000 cells/well in 100 μL of plating medium for at least 4 hours under a humidified atmosphere of CO2/air (5%/95%), at 37° C. After the cell attachment period, the plating medium was removed, and the hepatocytes were treated daily for 2 consecutive days (approximately 48 hours), with 100 μL per well of fresh culture medium containing either the vehicle control (0.1% DMSO) or the investigated compounds at four concentrations 0.3, 1, 3 and 10 μM, or rifampicin, the reference inducer at 10 μM. All incubations were performed in duplicates.
Ten mM stock solutions of the different compounds were diluted to obtain 0.3, 1 and 3 mM daughter solutions. The day of the experiment, stock solutions were diluted 1000-fold in the incubation/culture medium to achieve final concentrations of 0.3, 1, 3 and 10 μM.
After the 48-hour incubation period with the test compounds, the cell culture medium was removed, and the cells were lysed to release the RNA for CYP3A4 gene expression assessment. Quantification of CYP3A4 mRNA induction was performed by RT-PCR analysis.
Total RNA was extracted from hepatocytes using the King Fisher™ Flex Purification System with the MagMAX mirVana Total RNA Isolation kit (Thermo Fisher Scientific, USA). RNA was quantified by fluorimetry using the Quantifluor RNA System (Promega, USA) and cDNAs were synthesized from […] total RNA using the iScript Reverse Transcription Supermix for RT-qPCR from Biorad (France) at 42° C. for 30 min. cDNA samples were then diluted in water (1:5) and 5 μL of each sample was used for real-time PCR amplification by using the SYBR Green kit from Biorad (France). The following program was used: a denaturation step at 95° C. for 30 sec, and 40 cycles of PCR (denaturation, 95° C., 10 sec and annealing and extension, 58° C., 1 min). In all cases, the quality of the PCR product was assessed by monitoring a fusion step at the end of the run. Human forward and reverse primer sequences used were: 5′-CCT-GGC-ACC-CAG-CAC-AAT-3′ and 5′-GGG-CCG GAC-TCG-TCA-TAC-3′ for actin, 5′-CAC-AAA-CG-GAG-GCC-TTT-TG-3′ and 5′-ATC-CAT-GCT-GTA-GGC-CCC-AA-3′ for CYP3A4.
Cq (quantification cycle) values were determined using a multi-variable, non-linear regression model to individual well traces and then using this model an optimal Cq value was computed. Cq values are inversely proportional to the amount of target nucleic acid in the sample (i.e., lowest Cq level corresponds to the greatest amount of target nucleic acid in the sample). Cq of reference gene (in this study human actin) was also used as positive control of quantitative PCR.
The extent of induction or % of Emax, resulting from treatment with test compounds was calculated under the following formula: […]

% Degradation At 0.3 μM (ERα) [%] | CYP3A4 induction Emax (%) (CYP3A4) | Structure (SMILES)
88 | 22 | O=C(O)c1ccc2c(c1)CCCC(c1cccc(Cl)c1F)=C2c1ccc(CC2CCN(CCCF)C2)cc1 (single isomer, unassigned; isomer 1) [Compound 16, 8-(3-chloro-2-fluorophenyl)-9-(4-((1-(3-fluoropropyl)pyrrolidin-3-yl)methyl)phenyl)-6,7-dihydro-5H-benzo[7]annulene-3-carboxylic acid, Isomer 1]
90 | 34 | Cc1c(C2=C(c3ccc(CC4CCN(CCCF)C4)cc3)c3ccc(C(=O)O)cc3CCC2)cccc1C(F)(F)F.Cl (single isomer, unassigned; isomer 1) [Compound 12, 9-(4-((1-(3-fluoropropyl)pyrrolidin-3-yl)methyl)phenyl)-8-(2-methyl-3-(trifluoromethyl)phenyl)-6,7-dihydro-5H-benzo[7]annulene-3-carboxylic acid hydrochloride, Isomer 1]
90 | 11 | CC1(C)CC=C(C2=C(c3ccc(CC4CCN(CCCF)C4)cc3)c3ccc(C(=O)O)cc3CCC2)CC1.Cl (single isomer, unassigned; isomer 1) [Compound 11, 8-(4,4-dimethylcyclohex-1-en-1-yl)-9-(4-((1-(3-fluoropropyl)pyrrolidin-3-yl)methyl)phenyl)-6,7-dihydro-5H-benzo[7]annulene-3-carboxylic acid hydrochloride, Isomer 1]
